Laboratory results published in the NIST ThermoML archive (doi:10.1016/j.jct.2012.11.004).

Assay: mn = molality of the nth substance listed, in mol/kg
Details: 101 kPa, Liquid; for mass density: Vibrating tube method; for speed of sound: Pulse-echo method

O=S(=O)([O-])C(F)(F)F.O=S(=O)([O-])C(F)(F)F.O=S(=O)([O-])C(F)(F)F.[Lu+3] [lutetium(III) trifluoromethanesulfonate] + CC(=O)N(C)C
Details	mass density, 283.15 K [kg/m3]	mass density, 293.15 K [kg/m3]	mass density, 298.15 K [kg/m3]	mass density, 303.15 K [kg/m3]	mass density, 313.15 K [kg/m3]	mass density, 323.15 K [kg/m3]	mass density, 333.15 K [kg/m3]	speed of sound, 298.15 K [m/s]
m1 = 0.02294	960.37	951.15	946.53	941.91	932.67	923.39	914.07	1455.7
m1 = 0.03057	963.84	954.61	950	945.38	936.11	926.83	917.5	1455.4
m1 = 0.0402	968.22	958.99	954.37	949.75	940.48	931.19	921.86	1455
m1 = 0.05161	973.43	964.19	959.57	954.95	945.68	936.38	927.05	1454.7
m1 = 0.06304	978.74	969.5	964.89	960.24	950.96	941.65	932.31	1454.3
m1 = 0.07962	986.46	977.21	972.58	967.95	958.66	949.34	939.99	1453.7
m1 = 0.1022	997.19	987.92	983.29	978.65	969.35	960.02	950.65	1452.2
m1 = 0.1222	1006.81	997.54	992.9	988.26	978.94	969.59	960.2	1451.5
m1 = 0.1412	1016.12	1006.84	1002.2	997.55	988.22	978.86	969.47	1450.5
m1 = 0.1647	1027.86	1018.56	1013.91	1009.26	999.92	990.55	981.13	1449
m1 = 0.1843	1037.79	1028.48	1023.83	1019.21	1009.81	1000.43	991.01	1448.3

O=S(=O)([O-])C(F)(F)F.[Na+] [sodium trifluoromethanesulfonate] + CN(C)C=O
Details	mass density, 283.15 K [kg/m3]	mass density, 293.15 K [kg/m3]	mass density, 298.15 K [kg/m3]	mass density, 303.15 K [kg/m3]	mass density, 313.15 K [kg/m3]	mass density, 323.15 K [kg/m3]	mass density, 333.15 K [kg/m3]	speed of sound, 298.15 K [m/s]
m1 = 0.03242	961.31	951.8	947.04	942.26	932.69	923.07	913.39	–
m1 = 0.04301	962.37	952.86	948.1	943.33	933.75	924.13	914.46	–
m1 = 0.05649	963.72	954.21	949.44	944.67	935.1	925.48	915.81	–
m1 = 0.07002	965.07	955.56	950.8	946.03	936.46	926.83	917.16	1456.8
m1 = 0.08981	967.04	957.54	952.77	948	938.43	928.81	919.14	1456.7
m1 = 0.1114	969.21	959.69	954.93	950.16	940.6	930.98	921.31	1456.6
m1 = 0.1445	972.54	963.02	958.25	953.48	943.91	934.29	924.63	1456.4
m1 = 0.1748	975.61	966.08	961.32	956.54	946.97	937.35	927.69	1456.2
m1 = 0.2026	978.41	968.91	964.12	959.34	949.76	940.13	930.5	1456.1
m1 = 0.239	982.12	972.58	967.82	963.03	953.44	943.82	934.15	1455.9
m1 = 0.2681	985.09	975.55	970.79	966.01	956.41	946.79	937.1	1455.7

O=S(=O)([O-])C(F)(F)F.O=S(=O)([O-])C(F)(F)F.O=S(=O)([O-])C(F)(F)F.[Gd+3] [gadolinium (III) trifluoromethanesulfonate] + CN(C)C=O
Details	mass density, 283.15 K [kg/m3]	mass density, 293.15 K [kg/m3]	mass density, 298.15 K [kg/m3]	mass density, 303.15 K [kg/m3]	mass density, 313.15 K [kg/m3]	mass density, 323.15 K [kg/m3]	mass density, 333.15 K [kg/m3]	speed of sound, 298.15 K [m/s]
m1 = 0.01967	966.39	956.87	952.11	947.35	937.76	928.14	918.46	1455.8
m1 = 0.02703	969.53	960.01	955.25	950.48	940.9	931.28	921.61	1455.2
m1 = 0.03489	972.9	963.38	958.61	953.84	944.26	934.64	924.97	1454.5
m1 = 0.04531	977.36	967.83	963.07	958.3	948.72	939.1	929.43	1453.6
m1 = 0.05527	981.65	972.13	967.36	962.59	953.01	943.4	933.75	1452.8
m1 = 0.07019	988.17	978.65	973.89	969.1	959.52	949.91	940.24	1451.5
m1 = 0.09028	997.06	987.52	982.77	977.97	968.39	958.77	949.11	1449.4
m1 = 0.108	1004.97	995.43	990.66	985.88	976.29	966.68	957.02	1448
m1 = 0.1249	1012.67	1003.13	998.36	993.58	983.99	974.37	964.71	1446.3
m1 = 0.146	1022.39	1012.83	1008.05	1003.28	993.69	984.07	974.42	1443.5
m1 = 0.1634	1030.52	1020.96	1016.18	1011.39	1001.8	992.19	982.54	1441.7

O=S(=O)([O-])C(F)(F)F.[Na+] [sodium trifluoromethanesulfonate] + CC(=O)N(C)C
Details	mass density, 283.15 K [kg/m3]	mass density, 293.15 K [kg/m3]	mass density, 298.15 K [kg/m3]	mass density, 303.15 K [kg/m3]	mass density, 313.15 K [kg/m3]	mass density, 323.15 K [kg/m3]	mass density, 333.15 K [kg/m3]	speed of sound, 298.15 K [m/s]
m1 = 0.03102	953.06	943.85	939.25	934.64	925.39	916.13	906.83	–
m1 = 0.04251	954.18	944.96	940.36	935.76	926.52	917.26	907.96	–
m1 = 0.05604	955.5	946.28	941.68	937.08	927.84	918.59	909.29	1456
m1 = 0.07266	957.11	947.9	943.3	938.69	929.46	920.21	910.92	1455.8
m1 = 0.08844	958.64	949.43	944.83	940.23	931	921.75	912.46	1455.7
m1 = 0.1113	960.86	951.66	947.06	942.45	933.22	923.98	914.7	1455.5
m1 = 0.1446	964.1	954.89	950.29	945.68	936.46	927.21	917.94	1455.2
m1 = 0.174	966.97	957.75	953.15	948.54	939.35	930.09	920.85	1455
m1 = 0.2018	969.69	960.49	955.89	951.28	942.06	932.83	923.57	1454.7
m1 = 0.2378	973.2	964	959.39	954.79	945.58	936.36	927.11	1454.3
m1 = 0.2675	976.18	966.97	962.37	957.77	948.55	939.32	930.07	1453.9

O=S(=O)([O-])C(F)(F)F.O=S(=O)([O-])C(F)(F)F.O=S(=O)([O-])C(F)(F)F.[Lu+3] [lutetium(III) trifluoromethanesulfonate] + CN(C)C=O
Details	mass density, 283.15 K [kg/m3]	mass density, 293.15 K [kg/m3]	mass density, 298.15 K [kg/m3]	mass density, 303.15 K [kg/m3]	mass density, 313.15 K [kg/m3]	mass density, 323.15 K [kg/m3]	mass density, 333.15 K [kg/m3]	speed of sound, 298.15 K [m/s]
m1 = 0.02151	967.66	958.14	953.37	948.59	939.01	929.39	919.7	1455.4
m1 = 0.02883	970.96	961.44	956.67	951.89	942.3	932.66	922.98	1454.7
m1 = 0.03776	975	965.46	960.69	955.91	946.32	936.69	927	1454
m1 = 0.04886	980.05	970.51	965.73	960.95	951.35	941.71	932.02	1452.9
m1 = 0.0599	985.11	975.57	970.79	966.01	956.39	946.76	937.05	1451.8
m1 = 0.07513	992.17	982.63	977.84	973.05	963.43	953.77	944.07	1450.5
m1 = 0.09644	1002.19	992.62	987.83	983.03	973.4	963.72	954	1448
m1 = 0.1156	1011.35	1001.77	996.97	992.16	982.52	972.84	963.09	1445.9
m1 = 0.1337	1020.13	1010.53	1005.72	1000.91	991.25	981.57	971.83	1444.2
m1 = 0.1557	1031	1021.38	1016.56	1011.75	1002.08	992.37	982.6	1441.8
m1 = 0.1744	1040.3	1030.66	1025.84	1021.02	1011.33	1001.62	991.84	1439.7
